Measured values published in ChEMBL document CHEMBL1833895, “Synthesis and biological activity of desmethoxy analogues of coruscanone A” (Bioorg Med Chem Lett, 2011).
pIC50: −log10 of the molar value.

Legend:
[1] = test system: Nakaseomyces glabratus; test: Antifungal activity against Candida glabrata 20/I after 24 hrs by microdilution method; assay type: functional
[2] = test system: Candida parapsilosis; test: Antifungal activity against Candida parapsilosis ATCC 22019 after 48 hrs by microdilution method; assay type: functional; conditions: Lodderomyces parapsilosis, ATCC 22019, 48 h
[3] = test system: Aspergillus fumigatus; test: Antifungal activity against Aspergillus fumigatus 231 after 48 hrs by microdilution method; assay type: functional, organism-based; conditions: Aspergillus fumigatus, 231, 48 h
[4] = test system: Clavispora lusitaniae; test: Antifungal activity against Candida lusitaniae 2446/I after 48 hrs by microdilution method; assay type: functional
[5] = test system: Lichtheimia corymbifera; test: Antifungal activity against Absidia corymbifera 272 after 48 hrs by microdilution method; assay type: functional, organism-based; conditions: Lichtheimia corymbifera, 272, 48 h
[6] = test system: Candida tropicalis; test: Antifungal activity against Candida tropicalis 156 after 48 hrs by microdilution method; assay type: functional; conditions: Candida tropicalis, 156, 48 h
[7] = test system: Candida tropicalis; test: Antifungal activity against Candida tropicalis 156 after 24 hrs by microdilution method; assay type: functional; conditions: Candida tropicalis, 156, 24 h
[8] = test system: Candida albicans; test: Antifungal activity against Candida albicans ATCC 44859 after 48 hrs by microdilution method; assay type: functional; conditions: ATCC 44859, 48 h
[9] = Cytostatic activity against human HeLaS3 cells after 48 hrs by XTT assay; assay type: ADME, cell-based; conditions: HeLa S3, 48 h
[10] = test system: HT-29; test: Cytostatic activity against human HT-29 cells at 10 umol/L after 72 hrs by XTT assay; assay type: ADME, cell-based; conditions: ht-29, 72 h, 10 µM
[11] = test system: L1210; test: Cytostatic activity against mouse L1210 cells at 10 umol/L after 72 hrs by XTT assay; assay type: ADME, cell-based; conditions: l1210, 72 h, 10 µM
[12] = test system: Pichia kudriavzevii; test: Antifungal activity against Candida krusei ATCC 6258 after 24 hrs by microdilution method; assay type: functional; conditions: ATCC 6258, 24 h
[13] = Cytostatic activity against human COLO201 cells at 10 umol/L after 72 hrs by XTT assay; assay type: ADME, cell-based; conditions: colo 201, 72 h, 10 µM
[14] = test system: Lichtheimia corymbifera; test: Antifungal activity against Absidia corymbifera 272 after 24 hrs by microdilution method; assay type: functional, organism-based; conditions: Lichtheimia corymbifera, 272, 24 h
[15] = test system: Candida albicans; test: Antifungal activity against Candida albicans ATCC 90028 after 24 hrs by microdilution method; assay type: functional; conditions: ATCC 90028, 24 h
[16] = test system: Pichia kudriavzevii; test: Antifungal activity against Candida krusei ATCC 6258 after 48 hrs by microdilution method; assay type: functional; conditions: ATCC 6258, 48 h
[17] = test system: Nakaseomyces glabratus; test: Antifungal activity against Candida glabrata 20/I after 48 hrs by microdilution method; assay type: functional
[18] = test system: Trichosporon asahii; test: Antifungal activity against Trichosporon asahii 1188 after 48 hrs by microdilution method; assay type: functional; conditions: Trichosporon asahii, 1188, 48 h
[19] = test system: Trichophyton mentagrophytes; test: Antifungal activity against Trichophyton mentagrophytes 445 after 72 hrs by microdilution method; assay type: functional, organism-based; conditions: Trichophyton mentagrophytes, 445, 72 h
[20] = test system: Aspergillus fumigatus; test: Antifungal activity against Aspergillus fumigatus 231 after 24 hrs by microdilution method; assay type: functional, organism-based; conditions: Aspergillus fumigatus, 231, 24 h
[21] = test system: Clavispora lusitaniae; test: Antifungal activity against Candida lusitaniae 2446/I after 24 hrs by microdilution method; assay type: functional
[22] = test system: HL-60; test: Cytostatic activity against human HL60 cells at 10 umol/L after 72 hrs by XTT assay; assay type: ADME, cell-based; conditions: hl-60, 72 h, 10 µM
[23] = test system: Pichia kudriavzevii; test: Antifungal activity against Candida krusei E28 after 48 hrs by microdilution method; assay type: functional; conditions: E28, 48 h
[24] = test system: Trichosporon asahii; test: Antifungal activity against Trichosporon asahii 1188 after 24 hrs by microdilution method; assay type: functional; conditions: Trichosporon asahii, 1188, 24 h
[25] = test system: Candida parapsilosis; test: Antifungal activity against Candida parapsilosis ATCC 22019 after 24 hrs by microdilution method; assay type: functional; conditions: Lodderomyces parapsilosis, ATCC 22019, 24 h
[26] = test system: Trichophyton mentagrophytes; test: Antifungal activity against Trichophyton mentagrophytes 445 after 120 hrs by microdilution method; assay type: functional, organism-based; conditions: Trichophyton mentagrophytes, 445, 120 h
[27] = test system: Candida albicans; test: Antifungal activity against Candida albicans ATCC 90028 after 48 hrs by microdilution method; assay type: functional; conditions: ATCC 90028, 48 h
[28] = test system: CCRF-CEM; test: Cytostatic activity against human CCRF-CEM cells after 72 hrs by XTT assay; assay type: ADME, cell-based
[29] = test system: Candida albicans; test: Antifungal activity against Candida albicans ATCC 44859 after 24 hrs by microdilution method; assay type: functional; conditions: ATCC 44859, 24 h
[30] = test system: Pichia kudriavzevii; test: Antifungal activity against Candida krusei E28 after 24 hrs by microdilution method; assay type: functional; conditions: E28, 24 h
[31] = test system: CCRF-CEM; test: Cytostatic activity against human CCRF-CEM cells at 10 umol/L after 72 hrs by XTT assay; assay type: ADME, cell-based; conditions: 10 µM
[32] = Cytostatic activity against human HeLaS3 cells at 10 umol/L after 48 hrs by XTT assay; assay type: ADME, cell-based; conditions: hela s3, 48 h, 10 µM

Compound | IC80 [1] [µM] | IC80 [2] [µM] | IC80 [3] [µM] | IC80 [4] [µM] | IC80 [5] [µM] | IC80 [6] [µM] | IC80 [7] [µM] | IC80 [8] [µM] | Activity [10] | Activity [11] | IC80 [12] [µM] | Activity [13] | IC80 [14] [µM] | IC80 [15] [µM] | IC80 [16] [µM] | IC80 [17] [µM] | IC80 [18] [µM] | IC80 [19] [µM] | IC80 [20] [µM] | IC80 [21] [µM] | further results
O=C1C=CC(=O)C1=Cc1ccc(Br)cc1 | 15.6 | 15.6 | 31.2 | 15.6 | > 125 | 15.6 | 15.6 | 15.6 | Non-toxic | Non-toxic | 15.6 | Non-toxic | > 125 | 15.6 | 15.6 | 15.6 | 15.6 | 15.6 | 31.2 | 15.6 | pIC50 [9]: 5.31; Activity [22]: Non-toxic; IC80 [23]: 15.6 µM; IC80 [24]: 15.6 µM; IC80 [25]: 15.6 µM; pIC50 [26]: 4.81; IC80 [27]: 15.6 µM; pIC50 [28]: 5.74; IC80 [29]: 7.81 µM; IC80 [30]: 15.6 µM
O=C1C=CC(=O)C1=Cc1ccco1 | 15.6 | 15.6 | 31.2 | 15.6 | > 500 | 15.6 | 15.6 | 15.6 | Non-toxic | Non-toxic | 7.81 | Non-toxic | 250 | 15.6 | 15.6 | 15.6 | 31.2 | 7.81 | 15.6 | 15.6 | pIC50 [9]: 5.14; Activity [22]: Non-toxic; IC80 [23]: 15.6 µM; IC80 [24]: 15.6 µM; IC80 [25]: 15.6 µM; pIC50 [26]: 5.11; IC80 [27]: 15.6 µM; pIC50 [28]: 5.60; IC80 [29]: 7.81 µM; IC80 [30]: 15.6 µM
COc1ccc(/C=C/C=C2C(=O)C=CC2=O)cc1 | 250 | 250 | 250 | 250 | > 500 | 250 | 250 | 250 | Non-toxic | Non-toxic | 250 | Non-toxic | > 500 | 250 | 250 | 250 | 500 | 250 | 250 | 250 | Activity [31]: Non-toxic; Activity [22]: Non-toxic; IC80 [23]: 250 µM; IC80 [24]: 250 µM; Activity [32]: Non-toxic; IC80 [25]: 250 µM; pIC50 [26]: 3.30; IC80 [27]: 250 µM; IC80 [29]: 125 µM; IC80 [30]: 250 µM
O=C1C=CC(=O)C1=Cc1ccc(F)cc1 | 31.2 | 31.2 | 62.5 | 31.2 | > 125 | 31.2 | 15.6 | 15.6 | Non-toxic | Non-toxic | 15.6 | Non-toxic | > 125 | 15.6 | 31.2 | 31.2 | 62.5 | 15.6 | 31.2 | 15.6 | Activity [22]: Non-toxic; IC80 [23]: 31.2 µM; IC80 [24]: 31.2 µM; Activity [32]: Non-toxic; IC80 [25]: 15.6 µM; pIC50 [26]: 4.81; IC80 [27]: 31.2 µM; pIC50 [28]: 5.80; IC80 [29]: 7.81 µM; IC80 [30]: 15.6 µM
O=C1C=CC(=O)C1=Cc1ccccc1 | 7.81 | 3.9 | 31.2 | 15.6 | 250 | 3.9 | 3.9 | 1.95 | Non-toxic | Non-toxic | 3.9 | Non-toxic | 250 | 3.9 | 3.9 | 7.81 | 3.9 | 1.95 | 15.6 | 7.81 | Activity [22]: Non-toxic; IC80 [23]: 7.81 µM; IC80 [24]: 1.95 µM; Activity [32]: Non-toxic; IC80 [25]: 3.9 µM; pIC50 [26]: 5.41; IC80 [27]: 7.81 µM; pIC50 [28]: 5.59; IC80 [29]: 1.95 µM; IC80 [30]: 3.9 µM
O=C1C=CC(=O)C1=Cc1cccc(Br)c1 | 31.2 | 62.5 | 125 | 31.2 | > 125 | 62.5 | 31.2 | 31.2 | Non-toxic | Non-toxic | 15.6 | Non-toxic | > 125 | 15.6 | 31.2 | 62.5 | 125 | 15.6 | 125 | 31.2 | Activity [22]: Non-toxic; IC80 [23]: 31.2 µM; IC80 [24]: 32.5 µM; Activity [32]: Non-toxic; IC80 [25]: 31.2 µM; pIC50 [26]: 4.81; IC80 [27]: 31.2 µM; pIC50 [28]: 5.12; IC80 [29]: 15.6 µM; IC80 [30]: 31.2 µM
